# Patent US20240199587A1, “HETEROCYCLIC COMPOUNDS” (Hoffmann-La Roche Inc., priority 2021, published 2024)
# Target: T1, MAGL (Homo sapiens, UniProt Q99685)
# T1 sequence (Q99685 1-303): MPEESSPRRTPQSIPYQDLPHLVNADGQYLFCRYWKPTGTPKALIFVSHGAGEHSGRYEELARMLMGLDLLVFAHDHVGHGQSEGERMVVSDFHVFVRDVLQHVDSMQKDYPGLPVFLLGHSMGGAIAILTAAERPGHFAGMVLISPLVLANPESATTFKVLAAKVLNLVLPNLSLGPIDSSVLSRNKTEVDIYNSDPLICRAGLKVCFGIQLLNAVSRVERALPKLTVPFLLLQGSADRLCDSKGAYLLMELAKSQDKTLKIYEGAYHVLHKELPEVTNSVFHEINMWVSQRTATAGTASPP
# Assay: 2-AG assay (MAGL inhibitory activity, hydrolysis of 2-arachidonoylglycerol to arachidonic acid followed by mass spectrometry)
# Type: biochemical
# Conditions: 8 μM 2-arachidonoylglycerol, 15 min pre-incubation, 30 min incubation at RT, RapidFire MS readout
# Method in brief: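 Human MAGL ([…] final) pre-incubated 15 min at RT with compound in 50 mM TRIS, 1 mM EDTA, 0.01% Tween-20, 2.5% DMSO; 8 μM 2-AG then added for 30 min at RT. Acetonitrile quench with d8-arachidonic acid; arachidonic acid measured by RapidFire SPE–MS/MS, activity from arachidonic acid/d8 ratio.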
row,SMILES,IC50 [pM]
1,"O=C(N1CC(c2ccc(C3(N4CCOCC4)CC3)cc2)C1)N1CC2(CC(n3cnc(C4CC4)n3)C2)C1 [Example 34, [6-(3-cyclopropyl-1,2,4-triazol-1-yl)-2-azaspiro[3.3]heptan-2-yl]-[3-[4-(1-morpholinocyclopro-pyl)phenyl]azetidin-1-yl]methanone]",5700
2,"O=C(N1CC(c2ccc(C3CC3)cc2F)C1)N1CC2(CC(n3cnc(C4CC4)n3)C2)C1 [Example 38, [3-(4-cyclopropyl-2-fluoro-phenyl)azetidin-1-yl]-[6-(3-cyclopropyl-1,2,4-triazol-1-yl)-2-azaspiro[3.3]heptan-2-yl]methanone]",600
3,"COc1cc(C(F)(F)F)ccc1CC1CC2(C1)CN(C(=O)N1CC3(CC(n4cnc(C5CC5)n4)C3)C1)C2 [Example 40, [6-(3-cyclopropyl-1,2,4-triazol-1-yl)-2-azaspiro[3.3]heptan-2-yl]−[6-[[2-methoxy-4-(trifluoromethyl)phenyl]methyl]-2-azaspiro[3.3]heptan-2-yl]methanone]",30
4,"O=C(N1CC2(CC(Cc3ccc(F)cc3F)C2)C1)N1CC2(CC(n3cnc(C4CC4)n3)C2)C1 [Example 41, [6-(3-cyclopropyl-1,2,4-triazol-1-yl)-2-azaspiro[3.3]heptan-2-yl]-[6-[(2,4-difluorophenyl)methyl]-2-azaspiro[3.3]heptan-2-yl]methanone]",40
5,"O=C(N1CC2(CC(Oc3ccc(OC(F)(F)F)cc3F)C2)C1)N1CC2(CC(n3cnc(C4CC4)n3)C2)C1 [Example 42, [6-(3-cyclopropyl-1,2,4-triazol-1-yl)-2-azaspiro[3.3]heptan-2-yl]−[6-[2-fluoro-4-(trifluoromethoxy)phenoxy]-2-azaspiro[3.3]heptan-2-yl]methanone]",100
6,"O=C(N1CC2(CC(Oc3ccc(F)cc3Cl)C2)C1)N1CC2(CC(n3cnc(C4CC4)n3)C2)C1 [Example 45, [6-(2-chloro-4-fluoro-phenoxy)-2-azaspiro[3.3]heptan-2-yl]-[6-(3-cyclopropyl-1,2,4-triazol-1-yl)-2-azaspiro[3.3]heptan-2-yl]methanone]",200
7,"O=C(N1CC2(CC(Oc3cc(F)cc(C(F)(F)F)c3)C2)C1)N1CC2(CC(n3cnc(C4CC4)n3)C2)C1 [Example 46, (6-(3-cyclopropyl-1H-1,2,4-triazol-1-yl)-2-azaspiro[3.3]heptan-2-yl)(6-(3-fluoro-5-(trifluoromethyl)phenoxy)-2-azaspiro[3.3]heptan-2-yl)methanone]",200
8,N#Cc1cc(OC(F)(F)F)ccc1OC1CC2(C1)CN(C(=O)N1CC3(CC(n4cnc(C5CC5)n4)C3)C1)C2 [Example 47],200
9,"O=C(N1CC(c2ccc(C3(C(F)(F)F)CC3)cc2)C1)N1CC2(CC(n3cnc(C4CC4)c3)C2)C1 [Example 48, [6-(4-cyclopropylimidazol-1-yl)-2-azaspiro[3.3]heptan-2-yl]-[3-[4-[1-(trifluoromethyl)cyclo-propyl]phenyl]azetidin-1-yl]methanone]",200
10,O=C(N1CC(OCc2ccc(S(F)(F)(F)(F)F)cc2F)C1)N1CC2(CC(n3cnc(C4CC4)n3)C2)C1 [Example 49],300
11,"O=C(N1CC2(CC(Cc3ccc(F)c(F)c3)C2)C1)N1CC2(CC(n3cnc(C4CC4)n3)C2)C1 [Example 50, (6-(3-cyclopropyl-1H-1,2,4-triazol-1-yl)-2-azaspiro[3.3]heptan-2-yl)(6-(3,4-difluorobenzyl)-2-azaspiro[3.3]heptan-2-yl)methanone]",300
12,"O=C(N1CC2(CC(Oc3cncc(C(F)(F)F)n3)C2)C1)N1CC2(CC(n3cnc(C4CC4)n3)C2)C1 [Example 51, (6-(3-cyclopropyl-1H-1,2,4-triazol-1-yl)-2-azaspiro[3.3]heptan-2-yl)(6-((6-(trifluoromethyl)pyrazin-2-yl)oxy)-2-azaspiro[3.3]heptan-2-yl)methanone]",300
13,"O=C(N1CC2(CC(Oc3ccc(C(F)(F)F)cn3)C2)C1)N1CC2(CC(n3cnc(C4CC4)n3)C2)C1 [Example 52, [6-(3-cyclopropyl-1,2,4-triazol-1-yl)-2-azaspiro[3.3]heptan-2-yl]-[6-[[5-(trifluoromethyl)-2-pyridyl]oxy]-2-azaspiro[3.3]heptan-2-yl]methanone]",400
14,"O=C(N1CC2(CC(Oc3ccnc(C(F)(F)F)n3)C2)C1)N1CC2(CC(n3cnc(C4CC4)n3)C2)C1 [Example 55, [6-(3-cyclopropyl-1,2,4-triazol-1-yl)-2-azaspiro[3.3]heptan-2-yl]−[6-[2-(trifluoromethyl)pyrimidin-4-yl]oxy-2-azaspiro[3.3]heptan-2-yl]methanone]",1800

# Results, then the compound that gave them:
row,IC50 [pM],SMILES
1,400,"O=C(N1CC(c2ccc(OC(F)(F)F)cc2)C1)N1CC2(CC(n3cnc(C4CC4)n3)C2)C1 [Example 33, [6-(3-cyclopropyl-1,2,4-triazol-1-yl)-2-azaspiro[3.3]heptan-2-yl]−[3-[4-(trifluoromethoxy)phenyl]azetidin-1-yl]methanone]"
2,20000,CC(F)(F)c1ccc(C2CN(C(=O)N3CC4(CC(n5cnc(C6CC6)n5)C4)C3)C2)cc1 [Example 35]
3,400,"O=C(N1CC(c2ccc(OC(F)(F)F)c(F)c2)C1)N1CC2(CC(n3cnc(C4CC4)n3)C2)C1 [Example 36, [6-(3-cyclopropyl-1,2,4-triazol-1-yl)-2-azaspiro[3.3]heptan-2-yl]-[3-[3-fluoro-4-(trifluoromethoxy)phenyl]azetidin-1-yl]methanone]"
4,24500,"O=C(N1CC(c2ccc(CC(F)(F)F)cc2)C1)N1CC2(CC(n3cnc(C4CC4)n3)C2)C1 [Example 37, [6-(3-cyclopropyl-1,2,4-triazol-1-yl)-2-azaspiro[3.3]heptan-2-yl]-[3-[4-(2,2,2-trifluoroethyl)phenyl]azetidin-1-yl]methanone]"
5,2400,"N#Cc1cc(C2CN(C(=O)N3CC4(CC(n5cnc(C6CC6)n5)C4)C3)C2)ccc1OC(F)(F)F [Example 39, 5-[1-[6-(3-cyclopropyl-1,2,4-triazol-1-yl)-2-azaspiro[3.3]heptane-2-carbonyl]azetidin-3-yl]-2-(trifluoromethoxy) benzonitrile]"
6,100,"O=C(N1CC2(CC(Oc3ccc(C(F)(F)F)cc3)C2)C1)N1CC2(CC(n3cnc(C4CC4)n3)C2)C1 [Example 43, [6-(3-cyclopropyl-1,2,4-triazol-1-yl)-2-azaspiro[3.3]heptan-2-yl]-[6-[4-(trifluoromethyl)phenoxy]-2-azaspiro[3.3]heptan-2-yl]methanone]"
7,200,"CC(C)(C)c1ccc(C2CN(C(=O)N3CC4(CC(n5cnc(C6CC6)n5)C4)C3)C2)cc1 [Example 44, [3-(4-tert-butylphenyl)azetidin-1-yl]-[6-(3-cyclopropyl-1,2,4-triazol-1-yl)-2-azaspiro[3.3]heptan-2-yl]methanone]"
8,700,"O=C(N1CC(c2ccc(OC(F)(F)F)c(Cl)c2)C1)N1CC2(CC(n3cnc(C4CC4)n3)C2)C1 [Example 53, [3-[3-chloro-4-(trifluoromethoxy)phe-nyl]azetidin-1-yl]-[6-(3-cyclopropyl-1,2,4-triazol-1-yl)-2-azaspiro[3.3]heptan-2-yl]methanone]"
9,1200,"O=C(N1CC2(CC(Oc3ccc(OC(F)(F)F)cc3)C2)C1)N1CC2(CC(n3cnc(C4CC4)n3)C2)C1 [Example 54, [6-(3-cyclopropyl-1,2,4-triazol-1-yl)-2-azaspiro[3.3]heptan-2-yl]-[6-[4-(trifluoromethoxy)phe-noxy]-2-azaspiro[3.3]heptan-2-yl]methanone]"
